According to US9635854B2, “Controlling red rice with mesotrione” (FMC Corporation, priority 2014, dated 2017):
Like-named read-outs stand apart in the source and are kept apart here.

Assays:
[1] = test system: Rice (Oryza sativa) 'Taggart'; conditions: for Percent rice injury Taggart: in vivo
Experimental: (§1) Rice (Oryza sativa) crop varieties (‘Cybonee’, ‘Jupiter’, and ‘Taggart’) and red rice (Oryza sativa) were planted in 6 inch plastic pots containing sterile top soil. Eight to ten seeds of each species were seeded at 12 o'clock, 3 o'clock, 6 o'clock or 9 o'clock around the pot. The pots were watered after planting. […] The test solutions were applied using a compressed air track spray chamber at 30 gallons per acre using a Teejet 8001E nozzle at 40 PSI, three replicates per test rate. After treatment, the pots were watered lightly and transferred to trays in a greenhouse. After the plants were two inches in height the trays were flooded with water and maintained as such for 14 days. The trays were emptied of water and the pots were maintained by regular watering for 4 more days. At 14, 21 and 28 days after treatment (DAT) the plants were evaluated versus untreated control pots containing the same rice and weeds using a scale of 0% (no control) to 100% (complete plant death).

[2] = test system: Rice (Oryza sativa) 'Jupiter'; conditions: for Percent rice injury Jupiter: in vivo
Experimental: as §1

[3] = test system: Rice (Oryza sativa) 'Cybonee'; conditions: for Percent rice injury Cybonet: in vivo
Experimental: as §1

[4] = test system: red rice (Oryza sativa); assay: Pre-emergent evaluation on flooded rice, red rice control; assay type: in vivo; conditions: 200 g ai/ha; for Percent red rice control: PRE, direct-seeded flooded rice
Experimental: as §1

[5] = test system: red rice (Oryza sativa); assay: Pre-emergent evaluation on dryland rice, red rice control; assay type: in vivo; conditions: 200 g ai/ha; for Percent red rice control: PRE, direct-seeded dryland rice
Source text: (§2) Rice (Oryza sativa) was planted in 6″ by 10″ fiber flats filled with sterile top soil. Five rows were made in each flat and the three rice varieties (′Cybonee, ‘Jupiter’, and ‘Taggart’) were planted in the center 3 rows and a row of red rice (Oryza sativa) was planted on either end of the flat. The flats were watered after planting. After application flats were placed in the greenhouse and lightly watered. […] The flats were moved to a greenhouse and watered and fertilized routinely. Studies were conducted using randomized complete block design with four replications. In both studies, visual percent red rice control and rice injury were recorded at 14, 21, and 28 days after treatment (DAT), using a scale of 0 (no control/injury) to 100 (complete plant death).

[6] = test system: Rice (Oryza sativa) 'Taggart'; conditions: for Percent rice injury Taggart: Oryza sativa (rice), in vivo
Source text: as §2

[7] = test system: Rice (Oryza sativa) 'Jupiter'; conditions: for Percent rice injury Jupiter: Oryza sativa (rice), in vivo
Source text: as §2

[8] = test system: Rice (Oryza sativa) 'Cybonee'; conditions: for Percent rice injury Cybonet: Cybonee, Oryza sativa (rice), in vivo
Source text: as §2

CC1(C)CON(Cc2ccccc2Cl)C1=O [Clomazone, clomazone]
rice injury, 'Taggart' ([1]; PRE flooded rice, 200 g ai/ha): injured | Percent rice injury Taggart ([1]; Taggart, Oryza sativa (rice), 21 days after treatment): 76 A % | Percent rice injury Taggart ([1]; Taggart, Oryza sativa (rice), 28 days after treatment): 71 A % | Percent rice injury Taggart [1]: 58 A % | Percent rice injury Jupiter ([2]; Jupiter, Oryza sativa (rice), 21 days after treatment): 86 A % | Percent rice injury Jupiter ([2]; Jupiter, Oryza sativa (rice), 28 days after treatment): 79 A % | rice injury, 'Jupiter' ([2]; PRE flooded rice, 200 g ai/ha): injured | Percent rice injury Jupiter [2]: 60 A % | Percent rice injury Cybonet ([3]; Cybonee, Oryza sativa (rice), 21 days after treatment): 58 A % | Percent rice injury Cybonet ([3]; Cybonee, Oryza sativa (rice), 28 days after treatment): 49 AB % | rice injury, 'Cybonee' ([3]; PRE flooded rice, 200 g ai/ha): injured | Percent rice injury Cybonet [3]: 41 A % | red rice control ([4]; PRE flooded rice): failed to control | Percent red rice control ([4]; 14 DAT): 56 C % | Percent red rice control ([4]; 21 DAT): 59 B % | Percent red rice control ([4]; 28 DAT): 52 B % | red rice control ([5]; PRE dryland rice): failed to control | Percent red rice control ([5]; 14 DAT): 38 C % | Percent red rice control ([5]; 21 DAT): 50 D % | Percent red rice control ([5]; 28 DAT): 46 C % | rice injury, 'Taggart' ([6]; PRE dryland rice, 200 g ai/ha): injured | Percent rice injury Taggart ([6]; 14 days after treatment): 40 A % | Percent rice injury Taggart ([6]; 21 days after treatment): 60 A % | Percent rice injury Taggart ([6]; 28 days after treatment): 66 A % | Percent rice injury Jupiter ([7]; 14 days after treatment): 31 A % | Percent rice injury Jupiter ([7]; 21 days after treatment): 41 A % | Percent rice injury Jupiter ([7]; 28 days after treatment): 44 A % | rice injury, 'Jupiter' ([7]; PRE dryland rice, 200 g ai/ha): injured | Percent rice injury Cybonet ([8]; 14 days after treatment): 35 A % | Percent rice injury Cybonet ([8]; 21 days after treatment): 39 A % | Percent rice injury Cybonet ([8]; 28 days after treatment): 43 A % | rice injury, 'Cybonee' ([8]; PRE dryland rice, 200 g ai/ha): injured
